Test system: Human gingival fibroblasts (HGF-1)
Experiment: In vitro cytotoxicity (MTS) of PAMAM scaffolds
Type: cell-based
Protocol: The toxicity of the PAMAM scaffolds to human gingival fibroblasts (HGF-1) was evaluated after 2 and 24 h exposure times. Human gingival fibroblasts (HGF-1) were grown in FibroLife fibroblast serum-free media, and incubated in 5 vol % CO2 under humidified conditions at 37° C. The cells were trypsinized at 80% confluency and seeded into tissue culture-treated polystyrene 96-well plates at a density of 10^4 cells/well. The plates were incubated for an additional 24 h at 37° C. The supernatant was aspirated and replaced with 100 μL of fresh growth medium containing various concentrations of PAMAM scaffolds. After two incubation time points (i.e., 2 and 24 h) at 37° C., the supernatant was aspirated, and the cells were washed with DPBS. A 100 μL solution of media/MTS/PMS (105/20/1, v/v/v) solution was added to each well, and incubated for 3 h at 37° C. The absorbance of the colored supernatant was quantified at 490 nm using a Thermoscientific Multiskan EX plate reader (Waltham, MA). Measurements for untreated cells (control) and media/MTS/PMS mixture (blank) were also collected. Results were expressed as percentage of relative cell viability as follows: % cell viability=[(Abs490−Absblank)□/(Abscontrol−Absblank)]×100% (Eq. 1)
A killing curve was constructed for NO-releasing and control PAMAM scaffolds by plotting % cell viability versus concentration (mg mL^−).

Q: Which “toxicity to HGF-1 (in words)” value does the source give for Hyperbranched polyamidoamine [h-PAMAM] here?
A: The value was “most toxic”.

Reference: US12460050B2, “Nitric oxide-releasing hyperbranched compounds as antibacterial scaffolds and methods pertaining thereto” (The University of North Carolina at Chapel Hill, priority 2017, dated 2025)
